The record followed here is US12534748B2, “Engineered beta-subunit of tryptophan synthase for production of non-canonical amino acids” (California Institute of Technology, priority 2015, dated 2026).

This assay concerns the target T1, PfTrpB^2B9 (Pyrococcus furiosus, UniProt Q8U093, E17G/F274S/F95L/I16V/I68V/T292S/T321A/V384A).
T1 construct: made in house; host or cells: E. coli BL21 E. cloni Express
Put plainly: TTN of β-substitution reaction with L-Thr with different nucleophiles. It is filed as biochemical. Particulars: for TTN: LC-MS. Here is the method: Total Turnover Number (TTN) determination. Measurements were made using HPLC and LC-MS instruments. The amount of Trp formed was measured at 280 nm using a standard curve with trichlorobenzene as internal standard. […] This method is insensitive to loading volume and results agreed with measurements using a standard curve. […] This same technique was used to determine the TTN of the PfTrpB^2B9 reaction with different nucleophiles. […] Reactions were set up in triplicate using a total volume of 150 μL with 25 mM nucleophile and 250 mM L-Thr in 200 mM potassium phosphate pH 8.0 in borosilicate glass vials, as plastics can absorb indoles at high temperatures. Before addition of enzyme, all reagents were transferred into a Coy anaerobic chamber with <1 ppm O2 to rapidly exchange the atmosphere in the headspace of the vials to 95/5% N2/H2, which limits competing non-catalytic oxidation of indoles. Enzyme was added in the anaerobic environment with varied catalyst loading to ensure a robust product signal in subsequent analysis. Reaction vessels were capped before being removed from the anaerobic chamber and incubated in a 75° C. water bath for 24 hours. Reactions were quenched the next day by addition of 1 volume (150 μL) of 100% ACN, mixing, and allowing to rest at room temperature for 10 min. Quenched solutions were then diluted 5-fold with 40% ACN in water and analyzed via LC-MS. In all cases, auxiliary peaks that would indicate non-catalytic degradation of substrate were present at only low levels, contributing to <1% of the total integration signal for a given wavelength. For 7-azaindole, a second peak with m/z=220 was observed that was also found in larger scale reactions and whose properties are consistent with an N-alkylated product.
With these reaction conditions in hand, a characterization of the substrate scope of the reaction with Thr was performed. A small panel of indole-like nucleophiles were screened for reaction with PfTrpB^0B2 and Ser, and a significant boosts in activity was observed. This was expanded on this panel of nucleophiles and tests for activity with PfTrpB^2B9 using an excess of Thr was performed. Reactions were run to intermediate yield to determine the TTN with a given nucleophile and the identity of the products was established with a separate preparative-scale reaction using 100 mM nucleophile, 1.0 M Thr, and 0.02-0.25 mol % PfTrpB^2B9 catalyst. […] To probe the role of electronic effects on the C—C bond forming step, activity was tested with 4-fluoro and 5-fluoroindole, which are more closely isosteric with indole but have decreased electron density in the π-system. Product formation with each substrate and 3.4-fold decreased TTN with the 4-fluoro substrate was observed, which is more electron withdrawing at C-3 than the 5-fluoro substituent. The increased steric constraints of the activity site were again clear, as no activity with the 5-chloro-, 5-bromo, and 6-hydroxyindoles, which undergo reaction with Ser, was observed. […] This regioselectivity is well known with the indazole, which we found reacts exclusively to form the N-alkylated product. […] Inclusion of DTT reduced this side reaction.

[1] abbreviates: 25 mM nucleophile, 250 mM L-Thr, 24 hour reaction at 75° C.

T1 sequence (Q8U093 other isoform, or with tags, fused parts or gaps I16V/E17G/I68V/F95L/F274S/T292S/T321A/V384A): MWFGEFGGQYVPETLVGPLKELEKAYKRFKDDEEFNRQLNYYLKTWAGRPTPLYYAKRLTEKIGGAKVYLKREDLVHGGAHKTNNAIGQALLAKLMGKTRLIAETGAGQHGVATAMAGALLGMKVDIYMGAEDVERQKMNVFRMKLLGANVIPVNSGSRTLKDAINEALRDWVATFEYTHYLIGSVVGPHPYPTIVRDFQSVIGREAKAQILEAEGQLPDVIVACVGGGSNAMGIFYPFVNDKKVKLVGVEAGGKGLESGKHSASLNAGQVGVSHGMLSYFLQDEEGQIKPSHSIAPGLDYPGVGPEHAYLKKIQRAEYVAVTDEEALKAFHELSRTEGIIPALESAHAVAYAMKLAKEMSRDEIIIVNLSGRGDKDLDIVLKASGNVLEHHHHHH

As for `Cc1cc2ccccc2[nH]1` [2-Methylindole], the “reactivity of nucleophile with PfTrpB^2B9 and excess Thr” value (“reactivity of nucleophile” for short) was “Good reactivity”. This molecule also yielded a TTN under setting [1] of 6400 ± 1400.
Take `Fc1cccc2[nH]ccc12` [4-Fluoroindole]: under setting [1], the TTN came out at 378 ± 8. In addition, the “decrease of TTN” value (4-fluoro versus 5-fluoro substrate) is 3.4 fold.
Take `Fc1ccc2[nH]ccc2c1` [5-Fluoroindole]: the TTN under setting [1] came out at 1300 ± 280.
On to `Cc1ccc2cc[nH]c2c1` [6-Methylindole], for which the “reactivity of nucleophile” value is listed as “Good reactivity”. Under setting [1], this molecule returned a TTN of 1100 ± 100.
Consider `c1cnc2[nH]ccc2c1` [7-Azaindole], for which, under setting [1], the “TTN, C-alkylation” value is on record as “C-alkylation-220 ± 40” and the “TTN, N-alkylation” value is reported as “N-alkylation-32 ± 3”.
Consider `c1ccc2[nH]ncc2c1` [Indazole], for which the TTN under setting [1] worked out at 500 ± 40.
Same read-out and setting: to `c1ccc2[nH]ccc2c1` [Indole] belongs 8200 ± 1600.
As to `SCc1ccccc1` [benzyl mercaptan], the “reactivity of nucleophile” value is reported as “low turnover”.
Take `c1ccc2c(c1)CCN2` [indoline]: the “reactivity of nucleophile” value is listed as “no product formation”.
Still for that read-out and setting: to `Sc1ccccc1` [thiophenol] belongs “low turnover”.
